According to publication PMC12304311, “Sequence-based virtual screening using transformers” (Nature Communications, 2025):

Experiments:
[1] = target: T1, EGFR L858R/T790M/C797S kinase (EGFR^LTC) (Homo sapiens, UniProt P00533, C797S/L858R/T790M); assay: biochemical; set-up: HTRF KINASE-TK inhibition assay, EGFR L858R/T790M/C797S, ATP about Km, dose response
Procedure: A total of 25 nL of each compound was transferred to a 384-well reaction plate (Greiner, Cat#784075) using an Echo655 acoustic dispenser. […] The kinase solution was prepared in 1× kinase reaction buffer (comprising 5 mM MgCl₂, 1 mM DTT, and 1 mM MnCl₂), and 2.5 μL of this solution was added to each well. The plate was centrifuged at 140 g for 1 min and incubated at 25 °C for 10 min. […] This ATP level was selected in accordance with the Cheng-Prusoff equation (where ATP = Km, IC50 = 2Ki) to accurately reflect the inhibitory potency of test compounds. Then, 2.5 μL of the substrate-ATP mixture was added to each well, followed by centrifugation at 140 g for 1 min. The plate was sealed and incubated at 25 °C for 50 min. Subsequently, a 2× detection reagent mixture containing XL665 and anti-phospho-tyrosine antibody in detection buffer was prepared, and 5 μL of this solution was added to each well. The plate was centrifuged again (140 g, 1 min) and incubated at 25 °C for 60 min. Fluorescence emissions at 620 nm (Cryptate) and 665 nm (XL665) were measured using a microplate reader. Each assay condition was tested in duplicate. […] This was achieved by fitting the calculated percentage inhibition and the logarithm of the compound concentrations to a variable slope (four-parameter) nonlinear regression model. The model is expressed by the equation:3 Y=Bottom+Top−Bottom/1+10^LogIC50−X×Hill slope where X denotes the log of the inhibitor concentration and Y represents the percentage inhibition. Furthermore, the percentage of enzymatic activity in the presence of inhibitors, expressed as % Control, is derived by subtracting the % Inhibition from 100%.

[2] = target: T1, EGFR L858R/T790M/C797S kinase (EGFR^LTC); assay: HTRF KINASE-TK in vitro kinase inhibition assay, dose response; type: biochemical

T1 sequence (P00533 669-1210 T790M/C797S/L858R limits assumed): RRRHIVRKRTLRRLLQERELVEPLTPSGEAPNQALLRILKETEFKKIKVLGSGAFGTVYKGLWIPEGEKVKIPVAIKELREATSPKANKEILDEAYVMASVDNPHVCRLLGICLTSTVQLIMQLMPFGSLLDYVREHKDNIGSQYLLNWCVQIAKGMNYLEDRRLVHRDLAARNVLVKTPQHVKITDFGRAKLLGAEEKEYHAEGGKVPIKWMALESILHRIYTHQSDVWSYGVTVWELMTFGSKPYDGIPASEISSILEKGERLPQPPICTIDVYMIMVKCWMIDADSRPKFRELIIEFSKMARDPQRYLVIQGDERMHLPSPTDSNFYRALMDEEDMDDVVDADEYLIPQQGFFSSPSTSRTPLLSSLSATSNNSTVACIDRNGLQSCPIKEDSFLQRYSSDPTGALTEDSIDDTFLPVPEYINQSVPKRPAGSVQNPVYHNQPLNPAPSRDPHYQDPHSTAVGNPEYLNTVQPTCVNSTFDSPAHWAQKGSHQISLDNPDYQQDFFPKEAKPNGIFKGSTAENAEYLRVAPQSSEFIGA

IC50 [1] [µM]	IC50 [2] [µM]	SMILES
3.58	< 10	CCc1cc(Nc2nccc(-c3c(-c4ccc(OC)c(C(=O)Nc5c(F)cccc5F)c4)nc4ccccn34)n2)c(OC)cc1N1CCC(N2CCN(S(C)(=O)=O)CC2)CC1 [C7]
> 10		CC(C)N(C[C@H]1O[C@@H](n2cnc3c(N)ncnc32)[C@H](O)[C@@H]1O)[C@H]1C[C@@H](CCc2nc3cc(C(C)(C)C)ccc3[nH]2)C1 [C6]
> 10		CC(=O)O[C@]1(C(C)=O)CC[C@H]2[C@@H]3CCC4=CC(=O)CCC4=C3[C@@H](c3ccc(N(C)C)cc3)C[C@@]21C [C9]
	0.0012	COc1cc(N2CCC(N(C)C)CC2)ccc1Nc1ncc(Cl)c(Nc2ccccc2P(C)(C)=O)n1 [C10]
	0.0055	CC(=O)c1cnc2ccc(-c3cc(Cl)c(O)c(Cl)c3)nc2c1N[C@H]1CC[C@H](CN(C)C)CC1 [C1]

More lines, now with the values behind:

SMILES	IC50 [1] [µM]	IC50 [2] [µM]
CN(C)CC#Cc1ccc(OCCCc2sc(N3CCc4cccc(C(=O)Nc5nc6ccccc6s5)c4C3)nc2C(=O)O)c(F)c1 [C2]	> 10	
COc1cc2nccc(Oc3ccc(NC(=O)c4cn(C(C)C)c(=O)n(-c5ccc(F)cc5)c4=O)cc3F)c2cc1OC [C5]	2.74	< 10
N#Cc1ccnc(Nc2cc(C3CCN(C4COC4)CC3)cc(N3CCC(F)(F)C3)n2)c1 [C11]	0.106	< 10
N[C@@H]1c2cccnc2[C@H](OC(=O)N2CCC(n3c(=O)[nH]c4ncccc43)CC2)CC[C@H]1c1cccc(F)c1F [C8]	> 10	
CC1(C)CCC(CN2CCN(c3ccc(C(=O)NS(=O)(=O)c4ccc(NCC5CCOCC5)c([N+](=O)[O-])c4)c(Oc4cnc5[nH]ccc5c4)c3)CC2)=C(c2ccc(Cl)cc2)C1 [C3]	> 10	
